The supplement of paper PMC10307832

Key:
Assay in all cases: relative viability (nuclei count vs DMSO), 5 days (fraction); higher = more cells survive
201T = tested on: 201T
Outline: (§1)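 Dosing by pin tool came one day after lung cancer cell lines were seeded in 1536-well plates, using either one drug or a fixed anchor-drug dose plus five library-drug doses (not always all listed) in √10 steps. After 5 days, nuclei were counted on 4× images. Relative viability is treated-well nuclei count divided by vehicle-well nuclei count, and values are medians of duplicate plates.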

SW 1573 = tested on: SW 1573
Outline: as §1

NCI-H460 = tested on: NCI-H460
Outline: as §1

NCI-H727 = tested on: NCI-H727
Outline: as §1

NCI-H1793 = tested on: NCI-H1793
Outline: as §1

HCC-44 = tested on: HCC-44
Outline: as §1

NCI-H2228 = tested on: NCI-H2228
Outline: as §1

LCLC-97TM1 = tested on: LCLC-97TM1
Outline: as §1

PC-14 = tested on: PC-14
Outline: as §1

NCI-H23 = tested on: NCI-H23
Outline: as §1

COR-L23 = tested on: COR-L23
Outline: as §1

H3255 = tested on: H3255
Outline: as §1

NCI-H596 = tested on: NCI-H596
Outline: as §1

LCLC-103H = tested on: LCLC-103H
Outline: as §1

LK-2 = tested on: LK-2
Outline: as §1

NCI-H2347 = tested on: NCI-H2347
Outline: as §1

LU99A = tested on: LU99A
Outline: as §1

LC-2-ad = tested on: LC-2-ad
Outline: as §1

NCI-H1563 = tested on: NCI-H1563
Outline: as §1

A-427 = tested on: A-427
Outline: as §1

CC(=O)O[C@@]12CO[C@@H]1C[C@H](O)[C@@]1(C)C(=O)[C@H](O)C3=C(C)[C@@H](OC(=O)[C@H](O)[C@@H](NC(=O)OC(C)(C)C)c4ccccc4)C[C@@](O)([C@@H](OC(=O)c4ccccc4)[C@H]21)C3(C)C [Docetaxel] + C[C@]1(O)C[C@@H](c2nc(-c3ccc4ccc(-c5ccccc5)nc4c3)c3c(N)nccn32)C1 [Linsitinib] (partner 1 µM)
relative viability (201T; first compound 0.0002 µM): 1.04 | relative viability (201T; first compound 0.000632 µM): 1.07 | relative viability (201T; first compound 0.002 µM): 0.944 | relative viability (201T; first compound 0.006325 µM): 0.48 | relative viability (201T; first compound 0.02 µM): 0.284 | relative viability (SW 1573; first compound 0.0002 µM): 0.804 | relative viability (SW 1573; first compound 0.000632 µM): 0.594 | relative viability (SW 1573; first compound 0.002 µM): 0.279 | relative viability (SW 1573; first compound 0.006325 µM): 0.276 | relative viability (SW 1573; first compound 0.02 µM): 0.178 | relative viability (NCI-H460; first compound 0.0002 µM): 0.715 | relative viability (NCI-H460; first compound 0.000632 µM): 0.153 | relative viability (NCI-H460; first compound 0.002 µM): 0.0174 | relative viability (NCI-H460; first compound 0.006325 µM): 0.0113 | relative viability (NCI-H460; first compound 0.02 µM): 0.0074 | relative viability (NCI-H727; first compound 0.0002 µM): 0.384 | relative viability (NCI-H727; first compound 0.000632 µM): 0.307 | relative viability (NCI-H727; first compound 0.002 µM): 0.22 | relative viability (NCI-H727; first compound 0.006325 µM): 0.211 | relative viability (NCI-H727; first compound 0.02 µM): 0.21 | relative viability (NCI-H1793; first compound 0.0002 µM): 1.01 | relative viability (NCI-H1793; first compound 0.000632 µM): 0.939 | relative viability (NCI-H1793; first compound 0.002 µM): 0.666 | relative viability (NCI-H1793; first compound 0.006325 µM): 0.352 | relative viability (NCI-H1793; first compound 0.02 µM): 0.218 | relative viability (HCC-44; first compound 0.0002 µM): 0.608 | relative viability (HCC-44; first compound 0.000632 µM): 0.747 | relative viability (HCC-44; first compound 0.002 µM): 0.589 | relative viability (HCC-44; first compound 0.006325 µM): 0.201 | relative viability (HCC-44; first compound 0.02 µM): 0.106 | relative viability (NCI-H2228; first compound 0.0002 µM): 0.326 | relative viability (NCI-H2228; first compound 0.000632 µM): 0.197 | relative viability (NCI-H2228; first compound 0.002 µM): 0.173 | relative viability (NCI-H2228; first compound 0.006325 µM): 0.155 | relative viability (NCI-H2228; first compound 0.02 µM): 0.129 | relative viability (LCLC-97TM1; first compound 0.000632 µM): 0.153 | relative viability (LCLC-97TM1; first compound 0.002 µM): 0.155 | relative viability (LCLC-97TM1; first compound 0.006325 µM): 0.144 | relative viability (LCLC-97TM1; first compound 0.02 µM): 0.112 | relative viability (PC-14; first compound 0.0002 µM): 0.992 | relative viability (PC-14; first compound 0.000632 µM): 0.957 | relative viability (PC-14; first compound 0.002 µM): 0.606 | relative viability (PC-14; first compound 0.006325 µM): 0.152 | relative viability (PC-14; first compound 0.02 µM): 0.064 | relative viability (NCI-H23; first compound 0.0002 µM): 0.579 | relative viability (NCI-H23; first compound 0.000632 µM): 0.572 | relative viability (NCI-H23; first compound 0.002 µM): 0.465 | relative viability (NCI-H23; first compound 0.006325 µM): 0.22 | relative viability (NCI-H23; first compound 0.02 µM): 0.126 | relative viability (COR-L23; first compound 0.0002 µM): 0.813 | relative viability (COR-L23; first compound 0.000632 µM): 0.722 | relative viability (COR-L23; first compound 0.002 µM): 0.259 | relative viability (COR-L23; first compound 0.006325 µM): 0.101 | relative viability (COR-L23; first compound 0.02 µM): 0.0798 | relative viability (H3255; first compound 0.0002 µM): 0.824 | relative viability (H3255; first compound 0.000632 µM): 0.866 | relative viability (H3255; first compound 0.002 µM): 0.516 | relative viability (H3255; first compound 0.006325 µM): 0.223 | relative viability (H3255; first compound 0.02 µM): 0.209 | relative viability (NCI-H596; first compound 0.0002 µM): 1.02 | relative viability (NCI-H596; first compound 0.000632 µM): 0.953 | relative viability (NCI-H596; first compound 0.002 µM): 0.754 | relative viability (NCI-H596; first compound 0.006325 µM): 0.761 | relative viability (NCI-H596; first compound 0.02 µM): 0.437 | relative viability (LCLC-103H; first compound 0.0002 µM): 0.934 | relative viability (LCLC-103H; first compound 0.000632 µM): 1.18 | relative viability (LCLC-103H; first compound 0.002 µM): 0.919 | relative viability (LCLC-103H; first compound 0.006325 µM): 0.479 | relative viability (LCLC-103H; first compound 0.02 µM): 0.503 | relative viability (LK-2; first compound 0.0002 µM): 0.534 | relative viability (LK-2; first compound 0.000632 µM): 0.445 | relative viability (LK-2; first compound 0.002 µM): 0.154 | relative viability (LK-2; first compound 0.006325 µM): 0.151 | relative viability (LK-2; first compound 0.02 µM): 0.156 | relative viability (NCI-H2347; first compound 0.0002 µM): 0.946 | relative viability (NCI-H2347; first compound 0.000632 µM): 0.926 | relative viability (NCI-H2347; first compound 0.002 µM): 0.839 | relative viability (NCI-H2347; first compound 0.006325 µM): 0.622 | relative viability (NCI-H2347; first compound 0.02 µM): 0.517 | relative viability (LU99A; first compound 0.0002 µM): 0.52 | relative viability (LU99A; first compound 0.000632 µM): 0.458 | relative viability (LU99A; first compound 0.002 µM): 0.356 | relative viability (LU99A; first compound 0.006325 µM): 0.262 | relative viability (LU99A; first compound 0.02 µM): 0.169 | relative viability (LC-2-ad; first compound 0.0002 µM): 0.714 | relative viability (LC-2-ad; first compound 0.000632 µM): 0.223 | relative viability (LC-2-ad; first compound 0.002 µM): 0.185 | relative viability (LC-2-ad; first compound 0.006325 µM): 0.159 | relative viability (LC-2-ad; first compound 0.02 µM): 0.112 | relative viability (NCI-H1563; first compound 0.0002 µM): 1.19 | relative viability (NCI-H1563; first compound 0.000632 µM): 1.15 | relative viability (NCI-H1563; first compound 0.002 µM): 1.05 | relative viability (NCI-H1563; first compound 0.006325 µM): 0.988 | relative viability (NCI-H1563; first compound 0.02 µM): 0.617 | relative viability (A-427; first compound 0.0002 µM): 1.09 | relative viability (A-427; first compound 0.000632 µM): 1.12 | relative viability (A-427; first compound 0.002 µM): 1.02 | relative viability (A-427; first compound 0.02 µM): 0.227
